The METLIN SMRT retention time set (Domingo-Almenara et al. 2019)
Each block holds one compound with its values, some of them ahead of it.

Assay: gradient 5% acetonitrile 3 min, to 50% in 2 min, to 85% in 15 min, held 3 min, 100 µL/min
Details: column: Zorbax Extend-C18 2.1 x 50 mm; eluents: water / acetonitrile, 0.1% formic acid
How it was run: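 Values are retention times taken from adduct peaks that software picked and an analyst inspected. The pure standards were run as mixtures of ~100 molecules on HPLC linked to a quadrupole time-of-flight mass spectrometer, in positive and negative ionization mode. A Zorbax Extend-C18 column (2.1 × 50 mm, 1.8 μm) was used at 100 μL/min with water and acetonitrile, each including 0.1% formic acid.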

SMILES: COc1cccc(N2CCN(C(=O)C3CC(=O)N(c4n[nH]c5cccc(F)c45)C3)CC2)c1 (configuration not stated)
RP-LC retention time: 742 s

SMILES: COc1ccc2c(c1)C1(CCN(C(=O)c3ccc(Cl)cc3)C1)C(=O)N2 (configuration not stated)
RP-LC retention time: 767 s

SMILES: NC(=O)c1ccc(-n2cccc2)nc1
RP-LC retention time: 650 s

SMILES: OCCNCc1ccc(-c2cccc(C(F)(F)F)c2)o1
RP-LC retention time: 649 s

SMILES: CCC(=O)N1CCc2cc(N3CC(C(=O)Nc4ccc(SC)cc4)CC3=O)ccc21 (configuration not stated)
RP-LC retention time: 789 s

SMILES: O=C(NC1CCCCCCC1)C1CCCN(C(=O)c2cc(-c3ccncc3)n[nH]2)C1 (configuration not stated)
RP-LC retention time: 646 s

SMILES: COc1ccc(S(=O)(=O)N2CCC(n3cnnc3C(C)C)CC2)cc1
RP-LC retention time: 694 s

SMILES: Cc1nc2cccnc2n1C1CCN(C(=O)Nc2ccc(F)cc2F)CC1
RP-LC retention time: 619 s

SMILES: COC(=O)C1=CN(c2cc(C)cc(C)c2)c2ccccc2S1(=O)=O
RP-LC retention time: 943 s

SMILES: COc1ccc(NS(=O)(=O)c2c(C)sc(C)c2-c2cc(C(F)(F)F)on2)cc1
RP-LC retention time: 1110 s

SMILES: COc1ccc(C(=O)c2c(C)n(CCN3CCOCC3)c3ccccc23)cc1
RP-LC retention time: 780 s

SMILES: COc1ccc(-c2csc3c(=O)n(CC(=O)OC(C)(C)C)cnc23)cc1
RP-LC retention time: 1180 s

SMILES: CCn1ccc2sc(C)c(C(=O)NCc3cccc(OC)c3OC)c2c1=O
RP-LC retention time: 814 s

SMILES: CCOc1ccc(-c2noc(CN3C(=O)COc4ccc(C)cc43)n2)cc1OC
RP-LC retention time: 1010 s

SMILES: Cc1cccc(NC(=O)C2CCN(S(=O)(=O)c3ccc4c(c3)sc(=O)n4C)CC2)c1
RP-LC retention time: 910 s

SMILES: COc1ccc(-c2nc(-c3ccc4c(c3)oc(=O)n4C(C)C)no2)cc1
RP-LC retention time: 1070 s

SMILES: CCOC(=O)c1cnc2c(cnn2CC)c1NN=C(C)C
RP-LC retention time: 1010 s

SMILES: Fc1ccc(-c2nc3ncccn3c2Nc2ccc(Cl)cc2)cc1
RP-LC retention time: 847 s

SMILES: Cc1cc(C)cc(NC(=O)N2CCC(N3CCN(Cc4ccc(F)cc4)C(=O)C3=O)CC2)c1
RP-LC retention time: 788 s

SMILES: Cc1cnc(C(=O)N2CCC(N3CC(OCC4CC4)C34CCOCC4)CC2)cn1 (configuration not stated)
RP-LC retention time: 586 s

SMILES: CCCn1c(CCNC(=O)c2cc(F)ccc2F)nc2cccnc21
RP-LC retention time: 673 s

SMILES: CO[C@H]1CN(C(C)C)[C@H]1C1CCN(C(=O)C2CC=CC2)CC1
RP-LC retention time: 593 s

Continued, values first:

RP-LC retention time: 1210 s
SMILES: CC(NC(=O)c1c(O)c2cccnc2n(-c2cccc(F)c2)c1=O)c1ccc(F)cc1 (configuration not stated)

RP-LC retention time: 833 s
SMILES: Cc1noc(-c2ccnc(-n3cnc(C(=O)NCc4ccccc4F)c3)c2)n1

RP-LC retention time: 1130 s
SMILES: CCn1ccc(C(=O)N2CC(Oc3ccc(-c4nc(-c5ccccc5)no4)cc3)C2)n1

RP-LC retention time: 712 s
SMILES: COc1ccc(-c2cc(N3CCC(NC(=O)c4ccccc4OC)C3)n[nH]2)cc1 (configuration not stated)

RP-LC retention time: 836 s
SMILES: COc1ccccc1NC(=O)N1C[C@@H]2CN(S(=O)(=O)c3ccc(C)cc3)C[C@H](C1)O2

RP-LC retention time: 595 s
SMILES: Cc1ccc(CNC(=O)c2ccc3c(c2)ncn3CCN2CCCC2)cc1C

RP-LC retention time: 638 s
SMILES: CCNC(=O)C1CCCN(c2nc3ncn(CC(=O)NCc4ccccc4)c(=O)c3s2)C1 (configuration not stated)

RP-LC retention time: 566 s
SMILES: Cn1nnc2cc(CNC(=O)c3cccnc3)ccc21

RP-LC retention time: 639 s
SMILES: CC(NC(=O)C1=CCN(Cc2ccccc2)CC1)c1ccccc1 (configuration not stated)

RP-LC retention time: 746 s
SMILES: CCCCNC(=O)c1ccc(-n2ccnc2SCC(=O)Nc2ccccc2)cc1

RP-LC retention time: 691 s
SMILES: O=S(=O)(c1ccc(F)cc1)N1CCC2(CC1)NCCN=C2NCc1cccc(F)c1

RP-LC retention time: 1130 s
SMILES: O=C(NCc1ccc(N2CCCC2)cc1)c1sc2ncccc2c1-n1cccc1

RP-LC retention time: 946 s
SMILES: CCc1cccc(NS(=O)(=O)c2cn(C(C)C)c3ncccc23)c1

RP-LC retention time: 829 s
SMILES: CCOc1cc(=O)n2c(c1C(=O)Nc1ccc(Cl)c(C)c1)CCCC2

RP-LC retention time: 819 s
SMILES: O=C(NCc1ccccc1F)C1CCN(C(=O)c2ncn3c2COC(c2ccc(Cl)cc2)C3)CC1 (configuration not stated)
